Test results reported in ChEMBL document CHEMBL5500381, “Antiviral drug discovery: Pyrimidine entry inhibitors for Zika and dengue viruses” (Eur J Med Chem, 2024).
pEC50: −log10 of the molar value. Values after ≈ are worked out from the molar mass of the structure shown.

Assays:
[1] = Cytotoxicity against African green monkey Vero cells assessed as cell viability measured after 72 hrs by MTT assay; format: toxicity, cell-based; settings: chlorocebus sabaeus
[2] = Solubility of the compound in phosphate-buffered saline solution (PBS,pH 7.4) incubated for 24 hrs by shake-flask method; format: physicochemical
[3] = Solubility of the compound in simulated intestinal fluid (SIF,pH 6.8) incubated for 24 hrs by shake-flask method; format: ADME
[4] = Solubility of the compound in simulated gastric fluid (SGF,pH 1.2) incubated for 24 hrs by shake-flask method; format: ADME
dengue virus type 2 = assay: Anti-viral activity against DENV-2 Thailand/16681/1984 strain infected in african green monkey Vero cells at 0.1 MOI assessed as reduction in virus yield measured after 48 hrs by virus reduction assay; format: functional, organism-based; settings: Thailand/16681/1984, Vero
[5] = Selectivity index, ratio of CC50 for cytotoxicity against African green monkey Vero cells to EC50 for anti-viral activity against DENV-2 Thailand/16681/1984 strain; format: toxicity, cell-based; settings: read-out: Selectivity Index
Zika virus = assay: Anti-viral activity against ZIKV Argentine strain INEVH116141 infected in african green monkey Vero cells at 0.1 MOI assessed as reduction in virus yield measured after 48 hrs by virus reduction assay; format: functional, organism-based
[6] = Selectivity index, ratio of CC50 for cytotoxicity against African green monkey Vero cells to EC50 for anti-viral activity against ZIKV Argentine strain INEVH116141; format: toxicity, cell-based; settings: read-out: Selectivity Index

SMILES | CC50 at 72 h [1] [µM] | solubility thermodynamic at 24 h [2] [µg/mL] | solubility thermodynamic at 24 h [3] [µg/mL] | solubility thermodynamic at 24 h [4] [µg/mL] | pEC50 (dengue virus type 2) | selectivity ratio [5] | pEC50 (Zika virus) | selectivity ratio [6]
CN(Cc1ccc(Cl)cc1)c1cc(C(F)(F)F)nc(NCCN2CCCCC2)n1 | 8.18 | – | – | – | – | – | – | –
CC1(C)CC(Nc2nccc(Nc3ccc(-c4ccccc4)cc3)n2)CC(C)(C)N1 | – | 93 (≈ 232 µM) | 580 (≈ 1440 µM) | 2280 (≈ 5690 µM) | – | – | – | –
FC(F)(F)c1cc(NCc2cccnc2)nc(NCCN2CCCCC2)n1 | > 200 | – | – | – | < 4.30 | < 4 | < 4.30 | < 4
FC(F)(F)c1cc(Nc2ccc(C3CCCCC3)cc2)nc(NCCN2CCCCC2)n1 | 8.39 | – | – | – | – | – | – | –
Nc1ccc(CNc2cc(C(F)(F)F)nc(NCCN3CCCCC3)n2)cc1 | 8.92 | – | – | – | – | – | – | –
Fc1cc(Cl)ccc1CNc1cc(C(F)(F)F)nc(NCCN2CCCCC2)n1 | 9.07 | – | – | – | – | – | – | –
c1ccc(-c2ccc(Nc3nc(NCCN4CCCCC4)nc4ccsc34)cc2)cc1 | 7.5 | – | – | – | 5.09 | 0.92 | 5.39 | 1.83
CC1(C)CC(Nc2nc(Nc3ccc(-c4ccccc4)cc3)cc(C(F)(F)F)n2)CC(C)(C)N1 | 2.06 | – | – | – | – | – | – | –
COc1ccc(CNc2cc(C(F)(F)F)nc(NCCN3CCCCC3)n2)cc1 | 38.2 | – | – | – | < 4.70 | < 2 | 4.90 | 3.07
CC1(C)CC(Nc2nc(Nc3ccc(-c4ccccc4)cc3)c3sccc3n2)CC(C)(C)N1 | 6.4 | – | – | – | 5.31 | 1.3 | 5.38 | 1.54
CC1(C)CC(Nc2nccc(NCc3ccc(Cl)cc3)n2)CC(C)(C)N1 | 7.2 | – | – | – | 5.33 | 1.54 | 5.09 | 0.88
c1ccc(-c2ccc(Nc3ccnc(NCCN4CCCCC4)n3)cc2)cc1 | – | 32 (≈ 85.7 µM) | 324 (≈ 867 µM) | 108 (≈ 289 µM) | – | – | – | –
